{"source": "patent US20040043992A1", "about": "“Meloxicam for alleviating organ injury during organ operation or transplantation” (Boehringer Ingelheim International GmbH, priority 2002, published 2004)", "key": {"[1]": {"test_system": "ischemia/reperfusion injury of the liver", "experiment": "in vivo warm ischemia (Pringle's maneuver) and reperfusion of the liver in rats", "design": "species or system male Wistar rats", "conditions": "for Creatinine / GPT / LDH / TNF-alpha: 30 minutes warm ischemia of the liver, 60 minutes of reperfusion, GdCl3 10 mg/kg 24 hours prior", "procedure": "In the following experiment, the ability of an in vivo treatment with meloxicam to reduce ischemia/reperfusion injury of the liver was assessed.\nFor this purpose, male Wistar rats (250 g to 280 g body weight) were anesthetized with intraperitoneal application of pentobarbital (50 mg/kg body weight) and atropine (0.05 mg). All animals were subjected to a 30 minutes warm ischemia of the liver (Pringle's maneuver) and 60 minutes of reperfusion after median lapatomtomy.\nOne group of animals received no additional treatment (Control group). Another group was given 1 mg/kg body weight meloxicam just prior to the operation (COX-2I group). A third group was given 10 mg/kg body weight gadolinium chloride (GdCl3) 24 hours prior to the operation (GdCl3 group). A fourth group was given 10 mg/kg body weight gadolinium chloride 24 hours prior to operation and 1 mg/kg body weight meloxicam just prior to the operation (GdCl3+COX-2I group). Gadolinium chloride provides for a selective depletion of the liver Kupffer cells.\nTo assess and compare the level of injury in all groups of animals, a measurement of the enzyme release of glutamate pyruvate transaminase (GPT) and lactate dehydrogenase (LDH) was measured as indicator of hepatocellular injury, and the release of creatinine and TNF-alpha as an indicator of inflammation. To quantify the cellular damage on a structural level, histochemistry was performed with HE staining as well as immunohistochemistry using the TUNEL assay to quantify the apoptotic changes of the livers."}, "[2]": {"test_system": "livers of NHBDs (Non Heart Beating Donors)", "experiment": "ischemic in vitro preservation and reperfusion of livers of Non Heart Beating Donors", "design": "species or system Wistar rat", "conditions": "meloxicam 4.6 mg/kg body weight added to HTK solution; 60 minutes warm ischemia, 24 hours at 4° C., 45 minutes of reperfusion", "procedure": "A previous (unpublished) study was been performed by the inventors on the ischemic in vitro preservation of livers of NHBDs (Non Heart Beating Donors). The aim of this study was to test the ability of meloxicam to ameliorate the ischemia/reperfusion injury of these livers. The experiments were performed using a Wistar rat model. Cardiac arrest was induced in Wistar rats under anesthesia by phrenotomy. The livers were excised after 60 minutes of warm ischemia, flushed with 20 mL of Ringer's solution containing heparin and subsequently with 60 mL of Histidine-Tryptophane-Cetoglutarate (or HTK) solution and preserved for 24 hours at 4° C. In half of the experiments, meloxicam (4.6 mg/kg body weight) was added to the HTK solution. Reperfusion was carried out in vitro (3 mL/g/min) with oxygenated buffer at 37° C. After 45 minutes of reperfusion, portal venous pressure (PVP) was measured to evaluate vascular conductivity, the enzyme release of alanine aminotransferase (ALT) and […] (GLDH) was measured as indicator of hepatocellular injury, and the bile production and oxygen consumption (VO2) as parameter of functional recovery of the livers. To estimate the impact of oxygen free radicals, the production of malondialdehyde was measured in the hepatic effluent."}, "[3]": {"test_system": "warm ischemia/reperfusion injury (hepatic parenchymal injury)", "conditions": "pre- and post-ischemic administration; serum ALT, AST, LDH, HA; cited from earlier work"}, "[4]": {"test_system": "liver injuries after Pringle's maneuver", "conditions": "cited from earlier work; for number of polymorphonuclear neutrophils, lower than in untreated animals: 1 mg/kg"}, "[5]": {"test_system": "injury associated with ischemia/reperfusion of the brain, liver, kidney, lung, intestine, heart, and pancreas", "conditions": "administered 30 minutes prior to an hemorrhagic shock; cited from earlier work"}, "[6]": {"test_system": "ischemia/reperfusion injury during organ operation or transplantation", "conditions": "in vivo; cited from earlier work"}, "[7]": {"conditions": "meloxicam 1 mg/kg just prior to operation"}, "[8]": {"conditions": "1 mg/kg via the portal vein, 60 minutes warm ischemia"}}, "note": "Read-outs that look alike come from different tables or passages of the source. Square brackets hold non-standard residues; d marks the D form. Peptide text beside a SMILES is read from it. Nle = CCCC[C@H](N)C(=O)O"}
{"compound": "Cc1cnc(NC(=O)C2=C(O)c3ccccc3S(=O)(=O)N2C)s1", "note": "[COX-2I, 4-hydroxy-2-methyl-N-(5-methyl-2-thiazolyl)-2H-1,2-benzothiazine-3-carboxamide-1,1-dioxide]", "values": [{"measurement": "Creatinine", "setting": "[1]; [7]", "value": 0.65, "unit": "mg/dL"}, {"measurement": "GPT", "setting": "[1]; [7]", "value": 973, "unit": "Units/liter"}, {"measurement": "LDH", "setting": "[1]; [7]", "value": 6765, "unit": "Units/liter"}, {"measurement": "TNF-alpha", "setting": "[1]; [7]", "value": 3.5, "unit": "pg/mL serum"}, {"measurement": "lower level of GPT compared to the untreated Control group", "setting": "[1]; [7]", "value": 3, "unit": "times"}, {"measurement": "lower level of LDH compared to the untreated Control group", "setting": "[1]; [7]", "value": 4, "unit": "times"}, {"measurement": "lower level of TNF-alpha compared to the untreated Control group", "setting": "[1]; [7]", "value": 5, "unit": "times"}, {"measurement": "lower level of creatinine compared to the untreated Control group", "setting": "[1]; [7]", "value": 2, "unit": "times"}, {"measurement": "necrotic and apoptotic changes of the liver (HE staining, TUNEL assay)", "setting": "[1]; meloxicam treated groups, histochemistry", "value": "less necrotic as well as less apoptotic changes"}, {"measurement": "reduction of infiltration of MPO (myloperoxidase) positive cells into the liver after I/R", "setting": "[1]; myeloperoxidase reaction (Hanker-Yates solution)", "value": "~50", "unit": "%"}, {"measurement": "in vitro preservation of grafts from NHBDs", "setting": "[2]", "value": "improves the in vitro preservation of grafts from NHBDs"}, {"measurement": "production of free oxygen radicals during reperfusion (malondialdehyde in hepatic effluent)", "setting": "[2]", "value": "decreased the production of free oxygen radicals during reperfusion"}]}
{"compound": "CC(=O)c1ccc(NS(C)(=O)=O)c(Oc2ccc(F)cc2F)c1", "note": "[FK3311, 4′-acetyl-2′-(2,4-difluorophenoxy)methanesulfonanilide]", "values": [{"measurement": "protection against warm ischemia/reperfusion injury", "setting": "[3]", "value": "satisfactory protection"}, {"measurement": "level of serum enzyme activity (GOT, GPT, LDH) relative to untreated animals", "setting": "[4]; [8]", "value": "about half"}, {"measurement": "time after reperfusion by which blood flow recovered to the pre-ischemic level", "setting": "[4]; [8]", "value": "≤ 30", "unit": "min"}, {"measurement": "number of polymorphonuclear neutrophils, lower than in untreated animals", "setting": "[4]; 1 hour after reperfusion", "value": "about 40%"}, {"measurement": "number of polymorphonuclear neutrophils, lower than in untreated animals", "setting": "[4]; 6 hours after reperfusion", "value": "about 25%"}]}
{"compound": "[Cl][Gd]([Cl])[Cl]", "note": "[GdCl3, gadolinium chloride]", "values": [{"measurement": "Creatinine", "setting": "[1]; [7]", "value": 0.94, "unit": "mg/dL"}, {"measurement": "GPT", "setting": "[1]; [7]", "value": 1611, "unit": "Units/liter"}, {"measurement": "LDH", "setting": "[1]; [7]", "value": 12100, "unit": "Units/liter"}, {"measurement": "TNF-alpha", "setting": "[1]; [7]", "value": 8.05, "unit": "pg/mL serum"}]}
{"compound": "CC(=N)NCCCC[C@H](N)C(=O)O.Cl.Cl", "note": "[LNIL, L-N^6-(L-iminoethyl)lysine dihydrochloride]", "values": [{"measurement": "injury associated with ischemia/reperfusion of organs", "setting": "[5]", "value": "may also contribute to a protective effect"}]}
{"compound": "CC(=O)Oc1ccccc1C(=O)O", "note": "[aspirin]", "values": [{"measurement": "reduction of ischemia/reperfusion injury during organ operation or transplantation", "setting": "[6]", "value": "did not significantly reduce"}]}
{"compound": "CCCC[C@@H](C=O)NC(=O)[C@H](CC(C)C)NC(=O)[C@H](CC(C)C)NC(C)=O", "note": "[calpain inhibitor I] (Ac-Leu-Leu-[Nle]-aldehyde)", "values": [{"measurement": "injury associated with ischemia/reperfusion of organs", "setting": "[5]", "value": "reduces the injury"}]}
{"compound": "COc1ccc2c(c1)c(CC(=O)O)c(C)n2C(=O)c1ccc(Cl)cc1", "note": "[indomethacin]", "values": [{"measurement": "reduction of ischemia/reperfusion injury during organ operation or transplantation", "setting": "[6]", "value": "did not significantly reduce"}]}
